What was measured:
Conditions in all cases: incubation time: 72 h
BT-474 [1] = assay: normalised viability (% of control), CellTiter-Blue; higher = more viable cells (about 100 = DMSO control)
In short: (§1)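 Compound dissolved in 5 µl medium was pre-loaded into 384-well plates, and breast cancer cell lines in 20 µl suspension were seeded on top and incubated 72 h. After adding 2.5 µl CellTiter-Blue reagent for 2 h at 37 °C, fluorescence was read at 560/590 nm. Plates were normalised to vehicle (100) and a positive kill control (0), with Z'-factor quality control. Each value is normalised viability at a single listed concentration from the series.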

CAL-51 [2] = assay: as above
In short: as §1

Hs578T [3] = assay: as above
In short: as §1

BT-474 [4] = assay: drug sensitivity score (DSS), CellTiter-Glo (DSS (AUC-based score)); higher = stronger drug effect (viability inhibition or cytotoxicity); extreme values may be limits of the assay
In short: (§2)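 A drug sensitivity score was derived from the area under each fitted dose-response curve. Breast cancer cells (20 µl suspension) were seeded onto compound in 384-well plates, using 5 concentrations 10-fold apart over a compound-specific 10,000-fold range, and incubated 72 h. Readouts were CellTox Green fluorescence and then CellTiter-Glo luminescence, with every plate normalised to 0.1 % DMSO and a positive kill control.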

BT-549 = assay: as above
In short: as §2

CAL-120 = assay: as above
In short: as §2

CAL-148 = assay: as above
In short: as §2

CAL-51 [5] = assay: as above
In short: as §2

CAL-85-1 = assay: as above
In short: as §2

DU-4475 = assay: as above
In short: as §2

HCC1143 = assay: as above
In short: as §2

HCC1599 = assay: as above
In short: as §2

HCC1937 = assay: as above
In short: as §2

HDQ-P1 = assay: as above
In short: as §2

Hs578T [6] = assay: as above
In short: as §2

MCF-10A = assay: as above
In short: as §2

MDA-MB-231 = assay: as above
In short: as §2

MDA-MB-436 = assay: as above
In short: as §2

MDA-MB-453 = assay: as above
In short: as §2

MDA-MB-468 = assay: as above
In short: as §2

MFM-223 = assay: as above
In short: as §2

SK-BR-3 = assay: as above
In short: as §2

SMILES | drug sensitivity score (BT-474 [4]) | drug sensitivity score (BT-549) | drug sensitivity score (CAL-120) | drug sensitivity score (CAL-148) | drug sensitivity score (CAL-51 [5]) | drug sensitivity score (CAL-85-1) | drug sensitivity score (DU-4475) | drug sensitivity score (HCC1143) | drug sensitivity score (HCC1599) | drug sensitivity score (HCC1937) | drug sensitivity score (HDQ-P1) | drug sensitivity score (Hs578T [6]) | drug sensitivity score (MCF-10A) | drug sensitivity score (MDA-MB-231) | drug sensitivity score (MDA-MB-436) | drug sensitivity score (MDA-MB-453) | drug sensitivity score (MDA-MB-468) | drug sensitivity score (MFM-223) | drug sensitivity score (SK-BR-3) | also measured
O=C(O)CC[C@H]1CC[C@@](c2cc(F)ccc2F)(S(=O)(=O)c2ccc(Cl)cc2)CC1 [MK-0752] | 0 | 0 | 0 | 0 | 0 | 0 | 0 | 0 | 0 | 0 | 0 | 0 | 0 | 0 | 0 | 0 | 0 | 0 | 0 | normalised viability (BT-474 [1]; 1 nM): 121%; normalised viability (BT-474 [1]; 100 nM): 128%; normalised viability (BT-474 [1]; 1000 nM): 134%; normalised viability (CAL-51 [2]; 0.3 nM): 106%; normalised viability (CAL-51 [2]; 3 nM): 101%; normalised viability (CAL-51 [2]; 10 nM): 98.8%; normalised viability (Hs578T [3]; 1 nM): 137%; normalised viability (Hs578T [3]; 100 nM): 103%; normalised viability (Hs578T [3]; 1000 nM): 113%
N[C@@H](Cc1ccc(N(CCCl)CCCl)cc1)C(=O)O [Melphalan] | 19.2 | 14.4 | 11.5 | 19.5 | 21.3 | 17.4 | 19.1 | 13.9 | 17.2 | 20.2 | 19.5 | 16.2 | 17.6 | 20.7 | 16.6 | 21.3 | 21.5 | 19.3 | 20.5 | normalised viability (BT-474 [1]; 0.99 nM): 99.9%; normalised viability (BT-474 [1]; 99 nM): 98%; normalised viability (BT-474 [1]; 990 nM): 99.1%; normalised viability (CAL-51 [2]; 0.297 nM): 105%; normalised viability (CAL-51 [2]; 2.97 nM): 102%; normalised viability (CAL-51 [2]; 9.9 nM): 107%; normalised viability (Hs578T [3]; 0.99 nM): 98.4%; normalised viability (Hs578T [3]; 99 nM): 82%; normalised viability (Hs578T [3]; 990 nM): 73%
CO[C@H]1C[C@@H]2CC[C@@H](C)[C@@](O)(O2)C(=O)C(=O)N2CCCC[C@H]2C(=O)O[C@H]([C@H](C)C[C@@H]2CC[C@@H](O)[C@H](OC)C2)CC(=O)[C@H](C)/C=C(\C)[C@@H](O)[C@@H](OC)C(=O)[C@H](C)C[C@H](C)/C=C/C=C/C=C/1C [Sirolimus] | 2.79 | 9.21 | 6 | 6.47 | 7.01 | 8.85 | 1.94 | 5.31 | 0 | 3.34 | 2.98 | 7.08 | 0 | 0 | 3.52 | 6.86 | 12.2 | 5.41 | 5.69 | normalised viability (BT-474 [1]; 1 nM): 74.7%; normalised viability (BT-474 [1]; 100 nM): 75.1%; normalised viability (BT-474 [1]; 1000 nM): 67.5%; normalised viability (CAL-51 [2]; 0.3 nM): 80%; normalised viability (CAL-51 [2]; 3 nM): 45.8%; normalised viability (CAL-51 [2]; 10 nM): 34.5%; normalised viability (Hs578T [3]; 1 nM): 65.5%; normalised viability (Hs578T [3]; 100 nM): 53.1%; normalised viability (Hs578T [3]; 1000 nM): 51.8%
CC[C@@H]1C(=O)N(C)c2cnc(Nc3ccc(C(=O)N[C@H]4CC[C@H](N5CCN(CC6CC6)CC5)CC4)cc3OC)nc2N1C(C)C [Volasertib] | 8.07 | 15.1 | 7.64 | 4.27 | 16.3 | 12.6 | 8.16 | 11.2 | 10.3 | 3.79 | 5.3 | 9.68 | 8.92 | 9.58 | 12.9 | 12 | 14.8 | 15.5 | 19.9 | normalised viability (BT-474 [1]; 1 nM): 127%; normalised viability (BT-474 [1]; 100 nM): 56.6%; normalised viability (BT-474 [1]; 1000 nM): 96.8%; normalised viability (CAL-51 [2]; 0.3 nM): 116%; normalised viability (CAL-51 [2]; 3 nM): 99.8%; normalised viability (CAL-51 [2]; 10 nM): 100%; normalised viability (Hs578T [3]; 1 nM): 111%; normalised viability (Hs578T [3]; 100 nM): 40.3%; normalised viability (Hs578T [3]; 1000 nM): 35.1%
CC(C)(C)Cn1c(N)nc2ccc(-c3[nH]c(C(C)(C)C)nc3-c3ccc(F)cc3)nc21 | 0.606 | 1.72 | 0.0489 | 0 | 0 | 0 | 0 | 0 | 0 | 0 | 0 | 0 | 3.14 | 0 | 0 | 1.72 | 2.74 | 1.18 | 0.963 | 
Cc1c(C(=O)Nc2ccc(N3C[C@@H](C)O[C@@H](C)C3)nc2)cccc1-c1ccc(OC(F)(F)F)cc1 [NVP-LDE225] |  |  |  |  |  |  |  |  |  |  |  |  |  |  |  |  |  |  |  | normalised viability (BT-474 [1]; 10 nM): 96.5%; normalised viability (BT-474 [1]; 1000 nM): 101%; normalised viability (BT-474 [1]; 10000 nM): 63.5%; normalised viability (CAL-51 [2]; 3 nM): 105%; normalised viability (CAL-51 [2]; 30 nM): 101%; normalised viability (CAL-51 [2]; 100 nM): 101%; normalised viability (Hs578T [3]; 10 nM): 118%; normalised viability (Hs578T [3]; 1000 nM): 107%; normalised viability (Hs578T [3]; 10000 nM): 87%
COc1cc2c(cc1-c1c(C)noc1C)ncc1[nH]c(=O)n([C@H](C)c3ccccn3)c12 [I-BET151] | 3.77 | 8.5 | 5.1 | 0 | 3.89 | 8.93 | 3.45 | 1.94 | 0 | 2.32 | 3.02 | 9.14 | 5.37 | 2.63 | 0 | 7.96 | 3.38 | 6.13 | 3.27 | 
COc1cc(Nc2ncc(F)c(Nc3ccc4c(n3)N(COP(=O)(O)O)C(=O)C(C)(C)O4)n2)cc(OC)c1OC [Fostamatinib] | 4.12 | 4.31 | 5.15 | 0 | 0 | 2.69 | 0 | 1.25 | 0 | 1.88 | 2.19 | 4.77 | 7.38 | 6.92 | 0 | 0 | 0 | 7.93 | 1.13 | 
CCc1cnn2c(NCc3ccc[n+]([O-])c3)cc(N3CCCC[C@H]3CCO)nc12 [Dinaciclib] | 18.3 | 19.6 | 13.6 | 7.54 | 20.6 | 25.4 | 16.6 | 19.1 | 19.8 | 14.9 | 18.2 | 18.7 | 12.9 | 25.4 | 20.7 | 16 | 18.3 | 17.8 | 25.1 | 
CC(C)n1nc(-c2ccc3oc(N)nc3c2)c2c(N)ncnc21 [INK128] | 11.5 | 15.9 | 14.9 | 14.7 | 16.5 | 14.2 | 8.44 | 13 | 4.56 | 8.72 | 13.5 | 13.8 | 12 | 11.2 | 11.3 | 14.8 | 13.5 | 15.5 | 20.3 | 
CCCc1cc(C)[nH]c(=O)c1CNC(=O)c1cc(-c2ccnc(N3CCN(C)CC3)c2)cc2c1cnn2C(C)C [GSK343] | 3.79 | 1.73 | 0 | 0.724 | 0 | 1.9 | 1.22 | 0 | 3.37 | 0 | 0 | 0 | 0 | 4.65 | 1.6 | 6.37 | 5.85 | 2.85 | 6.24 | 
Cn1cc(C[C@@H](N)C(=O)O)c2ccccc21 [1-methyl-D-tryptophan] | 0 | 0 | 0 | 0 | 0 | 0 | 0 | 0 | 0 | 0 | 0 | 0 | 0 | 0 | 0 | 0 | 0 | 0 | 0 | 
CN1CCc2c(c3ccccc3n2Cc2ccc(C(=O)NO)cc2)C1 [Tubastatin A] | 0 | 0.314 | 0 | 0 | 11.2 | 0.989 | 0 | 2.45 | 0 | 1.2 | 0 | 0 | 0 | 0 | 0 | 0 | 0 | 0 | 1.22 | 
CC[C@H](CC#N)OC(=O)N[C@@H](C)c1cccc(NC(=O)Nc2ccc(-c3cnco3)c(OC)c2)c1 [AVN944] | 8.56 | 15.9 | 8.08 | 12.5 | 16.5 | 13.1 | 13.4 | 11.7 | 11.4 | 9.9 | 11.7 | 10.1 | 8.88 | 9.58 | 12.9 | 0 | 17.1 | 6.05 | 9.68 | 
CC(C)NC[C@@H](C(=O)N1CCN(c2ncnc3c2[C@H](C)C[C@H]3O)CC1)c1ccc(Cl)cc1 [GDC-0068] | 0.706 | 6.02 | 3.43 | 19.6 | 8.39 | 2.16 | 1.13 | 2.35 | 0 | 3.46 | 7.19 | 3.59 | 3.41 | 0 | 1.1 | 10.4 | 8.65 | 16.6 | 6.46 | 
Cc1c(C(=O)Nc2ccc(N3C[C@@H](C)O[C@@H](C)C3)nc2)cccc1-c1ccc(OC(F)(F)F)cc1 [Erismodegib] | 3.21 | 1.37 | 0 | 0 | 4.99 | 0 | 0 | 0 | 0 | 0 | 0.664 | 0 | 0 | 0 | 2.73 | 0 | 1.28 | 1.41 | 0 | 
